The source of these data is patent US11485993B2, “Therapeutic drug monitoring” (Fastinov S.A., priority 2017, dated 2022).

The subject of one test is S. aureus ATCC 29213. The test is described as follows: Flow cytometric measurement of the antimicrobial activity of vancomycin in human serum. The format is cell-based. The following applies: S. aureus ATCC 29213, flow cytometry, FIGS. 5A and 5B. The procedure: Material and Methods. S. aureus ATCC 29213 was incubated for 1 hour with serial concentrations of vancomycin (4 μg/ml to 0.03 μg/ml) in donor drug free human serum and stained with adequate fluorochrome. The intensity of fluorescence and the changes in the scattergram of the bacterial population were recorded after flow cytometry analysis. Twenty samples of serum collected from patients receiving vancomycin were obtained from the biochemistry lab. The vancomycin drug concentrations were analyzed by Architect iVancomycin (Abbott) using the Architect i1000 SR analyzer (Abbott). Architect iVancomycin is an in vitro chemiluminescent microparticle immunoassay (CMIA) for the quantitative measurement of vancomycin in human serum or plasma. In parallel, serum samples were incubated with the S. aureus control strain, after 10 serial dilutions (1:2) and analyzed by flow cytometry (Accury, BD) according the protocol described in Example 1. A flow cytometric template of cell analysis was defined in order to include the majority of the bacterial population. A comparison of the concentrations obtained with the Architect iVancomycin method and with the new flow cytometric method was performed using Student's T test.
In general terms: In flow cytometry, cells or beads pass a laser one at a time.

The next test has as its system E. coli ATCC 25922. Kind of test: Flow cytometric measurement of the antimicrobial activity of colistin in human plasma. The class given is cell-based. Here is the method: Serial dilutions of colistin (Sigma), ranging between 0.008 and 2 μg/ml, were inoculated in human plasma (free of colistin) and incubated with E. coli ATCC 25922 during 60 minutes and afterwards stained with a fluorescent dye and analyzed in a flow cytometer (Accuri, BD) using a protocol previously optimized (FIG. 3): a flow cytometric template of cell analysis was defined in order to include the majority of the bacterial population and at least 20,000 cells are analyzed according size, complexity and intensity of fluorescence on the different fluorescent channels.

Take `CN[C@H](CC(C)C)C(=O)N[C@H]1C(=O)N[C@@H](CC(N)=O)C(=O)N[C@H]2C(=O)N[C@H]3C(=O)N[C@H](C(=O)N[C@H](C(=O)O)c4cc(O)cc(O)c4-c4cc3ccc4O)[C@H](O)c3ccc(c(Cl)c3)Oc3cc2cc(c3O[C@@H]2O[C@H](CO)[C@@H](O)[C@H](O)[C@H]2O[C@H]2C[C@](C)(N)[C@H](O)[C@H](C)O2)Oc2ccc(cc2Cl)[C@H]1O` [vancomycin]: in the test on S. aureus ATCC 29213, the “cellular lesion with increasing concentration (reduction of cell density plot, increase of intensity of fluorescence)” value is “a dose effect cellular lesion is evident”. For colistin, the “morphological changes of the bacterial cell population after serial increasing concentrations” value in the test on E. coli ATCC 25922 (E. coli ATCC 25922, flow cytometry scattergrams) was “Morphological changes were evident”. In the test with E. coli ATCC 25922 (E. coli ATCC 25922, flow cytometry, FIG. 4), the “amount of cells at the acquisition gate after incubation with increasing concentrations” value is “a dose-dependent effect was achieved”.
